This note sets out measurements from US7071197B2, “N,N-disubstituted diazocycloalkanes” (Recordati S.A., priority 2002, dated 2006).

The target in assay [1] is T1, post-synaptic 5-HT1A receptors (Rattus norvegicus, UniProt P19327).
T1 construct: from tissue; host or cells: whole animal, male Sprague-Dawley rat (in vivo)
T1 sequence (P19327 1-422): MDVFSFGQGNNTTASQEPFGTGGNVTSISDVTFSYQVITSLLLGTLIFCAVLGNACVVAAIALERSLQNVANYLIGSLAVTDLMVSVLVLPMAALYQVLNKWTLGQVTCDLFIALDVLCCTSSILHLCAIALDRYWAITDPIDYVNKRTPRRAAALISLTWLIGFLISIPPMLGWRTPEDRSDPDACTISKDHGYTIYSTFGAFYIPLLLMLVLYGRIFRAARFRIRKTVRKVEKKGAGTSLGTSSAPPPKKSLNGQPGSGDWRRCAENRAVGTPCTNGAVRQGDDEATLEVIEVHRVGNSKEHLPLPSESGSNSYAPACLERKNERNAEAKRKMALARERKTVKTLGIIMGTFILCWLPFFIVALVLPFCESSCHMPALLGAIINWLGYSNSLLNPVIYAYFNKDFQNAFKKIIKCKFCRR
The assay can be described thus: Inhibition of stereotypy (rhythmic forepaw treading) induced by 8-OH-DPAT in rats. To be noted: for inhibition at 1 mg/kg / inhibition at 3 mg/kg / inhibition at 10 mg/kg / inhibition at 0.01 mg/kg / inhibition at 0.03 mg/kg / inhibition at 0.1 mg/kg / inhibition at 0.3 mg/kg: rat; for inhibition at 1 mg/kg: 1 mg/kg p.o.; for inhibition at 3 mg/kg: 3 mg/kg p.o.; for inhibition at 10 mg/kg: 10 mg/kg p.o.; for inhibition at 0.01 mg/kg: 0.01 mg/kg i.v.; for inhibition at 0.03 mg/kg: 0.03 mg/kg i.v.; for inhibition at 0.1 mg/kg: 0.1 mg/kg i.v. Type of assay: in vivo. As to the method:
The inhibitory effect of 5-HT1A-receptor antagonists on stereotyped forepaw treading induced in rats by subcutaneous injection of 8-OH-DPAT was evaluated by the method of Tricklebank (Tricklebank et al., Eur. J. Pharmacol., 117: 15, 1985) with minor modifications as described below.
Male Sprague-Dawley rats [Crl: CD® (SD) IGS BR] weighing 150–175 g from Charles River Italia were used. The animals were housed with free access to food and water and maintained on a forced 12-hour-light/12-hour-dark cycle at 22–24° C. of temperature. On the day of the experiment, the rats were placed singly in clear plastic containers, 10–15 minutes before administration of the vehicle or compounds to be tested. For evaluation of antagonistic activity after intravenous or oral administration, the compounds were administered 1 and 4 hours before induction of stereotypy by 8-OH-DPAT (1 mg/kg subcutaneously). Observation sessions lasted 30 seconds and began 3 minutes after 8-OH-DPAT treatment and were repeated every 3 minutes over a period of 15 minutes.
The appearance of the symptom induced by postsynaptic stimulation of 5-HT1A receptors was noted, and the intensity was scored using an intensity scale in which: 0=absent, 1=equivocal, 2=present and 3=intense. Behavioural scores for treated rats were accumulated throughout the observation time (5 observation periods) and expressed as mean values of 4 rats/dose. Change in mean values of treated animals in comparison with control (vehicle) group, expressed as per-cent inhibition, was used to quantify the antagonistic activity.

For a further assay, the target named is T2, human α1d-adrenoceptor (Homo sapiens, UniProt P25100).
T2 construct: expressed in transfected cells
T2 sequence (P25100 1-572): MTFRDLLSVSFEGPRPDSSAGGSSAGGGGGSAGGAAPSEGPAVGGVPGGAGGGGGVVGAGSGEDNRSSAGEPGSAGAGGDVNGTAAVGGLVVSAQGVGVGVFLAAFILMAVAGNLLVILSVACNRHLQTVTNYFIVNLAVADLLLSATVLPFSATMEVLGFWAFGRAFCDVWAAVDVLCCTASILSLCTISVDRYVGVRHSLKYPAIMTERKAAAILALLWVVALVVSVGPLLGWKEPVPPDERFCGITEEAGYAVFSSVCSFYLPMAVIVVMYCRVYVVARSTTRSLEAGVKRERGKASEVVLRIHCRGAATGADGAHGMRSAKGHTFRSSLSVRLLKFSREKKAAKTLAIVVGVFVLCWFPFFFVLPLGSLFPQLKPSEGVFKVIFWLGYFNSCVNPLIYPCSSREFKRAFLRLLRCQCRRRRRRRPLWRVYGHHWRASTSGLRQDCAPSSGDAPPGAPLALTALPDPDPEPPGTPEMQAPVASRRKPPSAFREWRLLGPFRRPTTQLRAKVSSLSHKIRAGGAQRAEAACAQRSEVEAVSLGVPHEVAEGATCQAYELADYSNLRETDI
Kind of assay: [3H]prazosin binding to cloned human α1-adrenoceptor subtypes (α1d). To be noted: for Ki: [3H]prazosin, CHO cell membranes, read-out: Binding affinity (Ki, nM) α1d; for α1d/S-HT1A: selectivity: ratio of Ki at α1d and Ki at 5-HT1A. As to the method:
Binding to cloned human α1-adrenoceptor subtypes was performed in membranes from CHO cells (chinese hamster ovary cells) transfected by electroporation with DNA expressing the gene encoding each α1-adrenoceptor subtype. Cloning and stable expression of the human α1-adrenoceptor gene was performed as previously described (Testa et al. Pharmacol. Comm., 6: 79–86,1995).
CHO cells were grown in suspension in Iscove's modified Dulbecco's medium, supplemented with 10% fetal calf serum and gentamicin (50 μg/ml), at 37° C. in 7% CO2 in an humidified incubator. Cells were collected by centrifugation, lised in ice-cold Tris 5 mM and EDTA 5 mM buffer (pH 7.4) and gently homogenised. Homogenates were centrifuged at 40000×g×20 min and pellets were resuspended in a small volume of ice-cold Tris 5 mM and EDTA 5 mM buffer (pH 7.4) and immediately frozen and stored at −80° C. until use.
CHO cell membranes were resuspended and incubated in 50 mM Tris, pH 7.4, with 0.2 nM [^3H]prazosin, in a final volume of 1.02 ml for 30 min at 25° C., in absence or presence of competing drugs. Non-specific binding was determined in the presence of 10 μM phentolamine. The incubation was stopped by rapid filtration through 0.2% polyethyleneimine pretreated Schleicher & Schuell GF52 filters using a Tomtec (PerkinElmer) cell harvester. The filters were washed with 3×1 ml of ice-cold Tris buffer, dried and the radioactivity was measured in a Betaplate (Wallac) liquid scintillation counter.
The inhibition of specific binding by the compounds was analysed to estimate the IC50 value by the non-linear curve-fitting program Allfit (De Lean et al. Am. J. Physiol. 235, E97-E102, 1978). The IC50 value is converted to an affinity constant (Ki) by the equation of Cheng & Prusoff (Biochem. Pharmacol. 22: 3099–3108, 1973).

[2] abbreviates: after intravenous administration.
[3] abbreviates: iv, 0.3 mg/kg i.v., 1 h before 8-OH-DPAT.
[4] abbreviates: iv, 0.3 mg/kg i.v., 4 h before 8-OH-DPAT.
[5] abbreviates: po, 0.3 mg/kg p.o., 1 h before 8-OH-DPAT.
Where [6] appears, read: po, 0.3 mg/kg p.o., 4 h before 8-OH-DPAT.

Like-named read-outs stand apart in the source and are kept apart here.

Consider `COc1ccccc1N1CCN(CC[C@@H](c2ccccc2F)[C@H](O)C2CCCCC2)CC1` (racemic) [Ex. 1, 1-[(SR-RS)-4-cyclohexyl-4-hydroxy-3-(2-fluorophenyl)-butyl]-4-(2-methoxyphenyl)-piperazine], for which, in assay [1] (1 h p.o.), the “ED75 (equieffective dose inhibiting the forepaw treading by 75%)” value is on record as 1 h p.o.: ED75 = 3.3 mg/kg/. Also, the “ED75 (equieffective dose inhibiting the forepaw treading by 75%)” value in assay [1] (4 h p.o.) is 4 h p.o.: ED75 = 4.0 mg/kg. In assay [1] (po, 1 h before 8-OH-DPAT), this compound displayed an inhibition at 1 mg/kg of 35%, an inhibition at 3 mg/kg of 84% and an inhibition at 10 mg/kg of 100%. In assay [1] (po, 4 h before 8-OH-DPAT), this compound returned an inhibition at 1 mg/kg of 37%, an inhibition at 3 mg/kg of 72% and an inhibition at 10 mg/kg of 96%. Moreover, at human α1d-adrenoceptor, the Ki came to 1 nM and the α1d/S-HT1A is 7.7.
For the compound `COc1ccccc1N1CCN(CC[C@H](c2ccccc2)[C@@H](O)C2CCCCC2)CC1` (racemic) [Ex. 5, 1-[(RS,SR)-4-Cyclohexyl-4-hydroxy-3-phenyl-butyl]-4-(2-methoxyphenyl)-piperazine, reference compound], the “ED75 (equieffective dose inhibiting the forepaw treading by 75%)” value is recorded as 4 h p.o.: ED75 = 4.6 mg/kg in assay [1], 1 h i.v.: ED75 = 0.032 mg/kg/ in assay [1] (1 h i.v.), 1 h p.o.: ED75 = 2.1 mg/kg/ in assay [1] (1 h p.o.) and 4 h i.v.: ED75 = 0.138 mg/kg in assay [1] (4 h i.v.). For the same compound, in assay [1] (setting [2]), the “potency in inhibiting forepaw treading, comparison” value was “practically equipotent”. The inhibition at 0.01 mg/kg was found to be 41% in assay [1] (iv, 1 h before 8-OH-DPAT) and 26% in assay [1] (iv, 4 h before 8-OH-DPAT). Besides, the inhibition at 0.03 mg/kg in assay [1] (iv, 1 h before 8-OH-DPAT) turned out to be 82%; in assay [1] (iv, 4 h before 8-OH-DPAT), 54%. Besides, the inhibition at 0.1 mg/kg in assay [1] (iv, 1 h before 8-OH-DPAT) came out at 100%; in assay [1] (iv, 4 h before 8-OH-DPAT), 72%. The inhibition at 0.3 mg/kg is 100% in assay [1] (setting [3]), 85% in assay [1] (setting [4]), 8% in assay [1] (setting [5]) and 20% in assay [1] (setting [6]). Further, the inhibition at 1 mg/kg in assay [1] (po, 1 h before 8-OH-DPAT) was 42%; in assay [1] (po, 4 h before 8-OH-DPAT), 46%. Moreover, the inhibition at 3 mg/kg in assay [1] (po, 1 h before 8-OH-DPAT) amounted to 90%; in assay [1] (po, 4 h before 8-OH-DPAT) it was 67%. For the same compound, the inhibition constant (Ki) on human α1d-adrenoceptor worked out at 0.5 nM. In addition, at human α1d-adrenoceptor, the α1d/S-HT1A was 0.8.
For `COc1ccccc1N1CCN(CC[C@H](c2ccccc2F)[C@@H](O)C2CCCCC2)CC1` [Ex. 1Y, 1-[(3R,4S)-4-cyclohexyl-4-hydroxy-3-(2-fluorophenyl)-butyl]-4-(2-methoxyphenyl)-piperazine], the “ED75 (equieffective dose inhibiting the forepaw treading by 75%)” value is 1 h i.v.: ED75 = 0.038 mg/kg/ in assay [1] (1 h i.v.), 1 h p.o.: ED75 = 1.7 mg/kg/ in assay [1] (1 h p.o.), 4 h i.v.: ED75 = 0.182 mg/kg in assay [1] (4 h i.v.) and 4 h p.o.: ED75 = 2.6 mg/kg in assay [1] (4 h p.o.). The “potency in inhibiting forepaw treading, comparison” value is on record as “practically equipotent” in assay [1] (setting [2]) and “more potent than Ex. 5” in assay [1] (after oral administration, in particular at four hours). Also, the inhibition at 0.01 mg/kg came to 37% in assay [1] (iv, 1 h before 8-OH-DPAT) and 11% in assay [1] (iv, 4 h before 8-OH-DPAT). Moreover, the inhibition at 0.03 mg/kg in assay [1] (iv, 1 h before 8-OH-DPAT) came out at 72%; in assay [1] (iv, 4 h before 8-OH-DPAT), 35%. Further, the inhibition at 0.1 mg/kg worked out at 100% in assay [1] (iv, 1 h before 8-OH-DPAT) and 65% in assay [1] (iv, 4 h before 8-OH-DPAT). Further, the inhibition at 0.3 mg/kg stood at 100% in assay [1] (setting [3]), 84% in assay [1] (setting [4]), 18% in assay [1] (setting [5]) and 18% in assay [1] (setting [6]). Besides, the inhibition at 1 mg/kg amounted to 58% in assay [1] (po, 1 h before 8-OH-DPAT) and 38% in assay [1] (po, 4 h before 8-OH-DPAT). For the same compound, the inhibition at 3 mg/kg in assay [1] (po, 1 h before 8-OH-DPAT) was found to be 92%; in assay [1] (po, 4 h before 8-OH-DPAT), 85%. At human α1d-adrenoceptor, the inhibition constant (Ki) stood at 1.2 nM. Also, at human α1d-adrenoceptor, the α1d/S-HT1A amounted to 3.2.
As to `COc1ccccc1N1CCN(CC[C@H](c2ccccc2F)[C@H](O)C2CCCCC2)CC1` [Ex. 2X, 1-[(3R,4R)-4-cyclohexyl-4-hydroxy-3-(2-fluorophenyl)-butyl]-4-(2-methoxyphenyl)-piperazine], in assay [1] (1 h i.v.), the “ED75 (equieffective dose inhibiting the forepaw treading by 75%)” value was 1 h i.v.: ED75 = 0.041 mg/kg/. Moreover, the “ED75 (equieffective dose inhibiting the forepaw treading by 75%)” value in assay [1] (4 h i.v.) is recorded as 4 h i.v.: ED75 = 0.152 mg/kg. In addition, in assay [1] (setting [2]), the “potency in inhibiting forepaw treading, comparison” value was “practically equipotent”. Besides, in assay [1] (iv, 1 h before 8-OH-DPAT), at 0.01 mg/kg the inhibition was 39%, the inhibition at 0.03 mg/kg is 65% and the inhibition at 0.1 mg/kg came to 100%. In assay [1] (iv, 4 h before 8-OH-DPAT), this compound gave an inhibition at 0.01 mg/kg of 6%, an inhibition at 0.03 mg/kg of 49% and an inhibition at 0.1 mg/kg of 63%. Further, 0.3 mg/kg produced 100% inhibition in assay [1] (setting [3]). Moreover, the inhibition at 0.3 mg/kg in assay [1] (setting [4]) amounted to 89%. At human α1d-adrenoceptor, the Ki turned out to be 0.5 nM and the α1d/S-HT1A stood at 2.1.

In general, inhibition refers to the percentage by which the read-out fell short of the control. By Ki is commonly meant a measure of affinity in units of concentration, obtained from inhibition or displacement.
